Data set [1] can be described thus: Largest Soluble Hydrocarbon (LSH). As to conditions: test material to hydrocarbon ratio approximately 1:1 to 1:2 by weight, no haze to the naked eye. Format: physicochemical. The protocol:
Largest Soluble Hydrocarbon (LSH): The LSH of each hydrofluorothioether and competitive example was determined by mixing the compound with hydrocarbons of varying molecular weight (CnH2n+2, where n=9 to 24) in a test material to hydrocarbon ratio of approximately 1:1 to 1:2 by weight at room temperature (23° C.) and at 50° C. […] A larger value of n is interpreted herein to indicate a greater ability of the hydrofluorothioether to clean hydrocarbons.
Table 2 summarizes results of Largest Soluble Hydrocarbon (LSH) testing of Examples 1-3 and Comparative Examples CE1-CE5.

The nature of data set [2]: Atmospheric lifetime from relative rate studies with hydroxyl radicals. The data set is classed as physicochemical. The following applies: rate of reaction with hydroxyl radicals relative to CH3Cl reference. The protocol:
Atmospheric Lifetime and Global Warming Potential (GWP): The atmospheric lifetime of each test material was determined from relative rate studies utilizing chloromethane (CH3Cl) as a reference compound. The pseudo-first order reaction rates of the reference compound and the test compound with hydroxyl radicals (·OH) was determined in a laboratory chamber system. The atmospheric lifetime of the reference compound is documented in the literature. Based on this value and the pseudo-first order rates measured in the chamber experiments, the atmospheric lifetime for each specimen was calculated from the reaction rates for the test compound relative to the reference compounds and the reported lifetime of the reference compounds as shown below:
[formula] where τx is the atmospheric lifetime of test material, τr is the atmospheric lifetime of the reference compound, and kx and kr are the rate constants for the reaction of hydroxyl radical with test material and the reference compound, respectively. The concentrations of gases in the test chamber were quantified by Fourier transform infrared spectroscopy (FTIR). The measured atmospheric lifetime value of each fluid was subsequently used for the GWP calculation.

For another data set, the system named is rats. The data set is described as follows: Repeat dose inhalation toxicity in rats. The data set is classed as in vivo. As to conditions: 3 male rats, 750 ppm, 6-hour/day, five day repeated exposure. The protocol:
Toxicity: The repeat dose inhalation toxicity in rats was determined by a five day repeated exposure of 3 male rats to 750 ppm of the test compound for 6 hours per day.
The repeat dose inhalation toxicity in rats was determined by a five day repeated exposure of 3 male rats to 750 ppm (6-hour/day) of Example 2.

On to `COC(F)(F)C(F)(F)C(F)(F)C(F)(F)F` [CE1, n-C4F9—O—CH3], for which the “LSH (n in CnH2n+2)” value in data set [1] (23° C.) and in data set [1] (50° C.) was 9 throughout.

With `COC(F)(F)C(F)(F)C(F)(F)F` [CE2, CF3(CF2)2—O—CH3], the “LSH (n in CnH2n+2)” value in data set [1] (23° C.) and in data set [1] (50° C.) was 10 each time. Moreover, the “Atmospheric Lifetime” value in data set [2] is listed as 5.0 years.

Turning to `FC(F)(F)CC(F)(F)CCl` [CE5], the “LSH (n in CnH2n+2)” value is on record as 14 in data set [1] (23° C.) and 17 in data set [1] (50° C.).

For the compound `CSC(F)(F)C(F)(F)C(F)(F)C(F)(F)F` [Example 1, n-C4F9—S—CH3], the “LSH (n in CnH2n+2)” value in data set [1] (23° C.) amounted to 18; in data set [1] (50° C.), 21.

As to `CSC(F)(C(F)(F)F)C(F)(F)F` [Example 2, perfluoroisopropyl methyl thioether], the “LSH (n in CnH2n+2)” value in data set [1] (23° C.) was determined as 18. In addition, the “LSH (n in CnH2n+2)” value in data set [1] (50° C.) is given as over 23. Further, in the data set on rats, the “clinical signs of toxicity, body weights, organ weights” value was “no adverse clinical signs of toxicity, changes in body weights, or organ weights (lungs, liver, and kidneys)”; the “histopathological effects in respiratory tract, liver, kidneys” value is “No adverse histopathological effects were observed in the respiratory tract, liver, or kidneys”. Besides, the “Atmospheric Lifetime” value in data set [2] stood at 0.01 years.

For the origin of these results see patent US12227721B2, “Hydrofluorothioethers and methods of using same” (3M INNOVATIVE PROPERTIES COMPANY, priority 2020, dated 2025).
